The target in assay [1] is T1, Aurora kinase A (Homo sapiens, UniProt O14965).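 Further: value from the Navigating the Kinome kinase panel profiling, panel entry STK6.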
T1 sequence (O14965 whole entry): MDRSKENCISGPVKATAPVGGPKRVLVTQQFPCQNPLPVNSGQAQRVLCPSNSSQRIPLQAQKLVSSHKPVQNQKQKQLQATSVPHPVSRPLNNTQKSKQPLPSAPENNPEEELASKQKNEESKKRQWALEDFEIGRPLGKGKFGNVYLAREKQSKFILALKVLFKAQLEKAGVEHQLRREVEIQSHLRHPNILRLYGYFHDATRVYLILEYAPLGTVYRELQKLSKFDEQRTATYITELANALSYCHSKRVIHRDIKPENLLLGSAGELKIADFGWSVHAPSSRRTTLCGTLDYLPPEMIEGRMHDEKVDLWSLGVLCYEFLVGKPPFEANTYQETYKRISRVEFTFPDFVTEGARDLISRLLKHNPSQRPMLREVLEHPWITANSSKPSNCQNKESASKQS
The format is functional.

In assay [2] the target is Aurora kinase B (Homo sapiens, UniProt Q96GD4). The format is functional.
Assay [3] deals with T2, Insulin-degrading enzyme (Homo sapiens, UniProt P14735).
T2 sequence (P14735 whole entry): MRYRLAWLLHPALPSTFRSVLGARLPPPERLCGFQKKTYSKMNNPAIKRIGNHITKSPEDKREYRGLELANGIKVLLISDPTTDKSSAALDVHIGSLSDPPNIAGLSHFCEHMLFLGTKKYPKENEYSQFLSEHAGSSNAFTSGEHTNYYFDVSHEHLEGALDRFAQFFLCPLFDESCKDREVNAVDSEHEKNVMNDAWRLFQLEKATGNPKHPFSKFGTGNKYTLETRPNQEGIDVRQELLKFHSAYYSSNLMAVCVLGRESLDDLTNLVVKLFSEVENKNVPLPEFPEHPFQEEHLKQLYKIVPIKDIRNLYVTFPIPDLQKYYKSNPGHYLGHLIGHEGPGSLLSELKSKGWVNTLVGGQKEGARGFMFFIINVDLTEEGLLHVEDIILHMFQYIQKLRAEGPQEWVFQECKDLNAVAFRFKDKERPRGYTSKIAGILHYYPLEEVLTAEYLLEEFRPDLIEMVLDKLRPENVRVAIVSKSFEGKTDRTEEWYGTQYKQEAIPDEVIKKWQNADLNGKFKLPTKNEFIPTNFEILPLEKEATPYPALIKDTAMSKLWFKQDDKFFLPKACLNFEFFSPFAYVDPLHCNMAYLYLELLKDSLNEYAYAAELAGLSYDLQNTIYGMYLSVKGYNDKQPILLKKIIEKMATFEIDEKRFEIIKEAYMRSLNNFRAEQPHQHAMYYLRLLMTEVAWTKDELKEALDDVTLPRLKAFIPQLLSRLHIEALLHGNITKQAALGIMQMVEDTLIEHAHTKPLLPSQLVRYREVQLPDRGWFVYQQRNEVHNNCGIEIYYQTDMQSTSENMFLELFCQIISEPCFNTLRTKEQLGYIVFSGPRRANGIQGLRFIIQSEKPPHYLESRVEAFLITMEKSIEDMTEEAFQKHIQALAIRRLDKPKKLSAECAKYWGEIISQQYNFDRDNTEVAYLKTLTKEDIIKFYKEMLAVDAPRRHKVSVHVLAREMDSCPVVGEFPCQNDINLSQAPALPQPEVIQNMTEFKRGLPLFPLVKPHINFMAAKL
Kind of assay: activators of recombinant IDE enzyme, dose response, counter-screen for IDE activator project, biochemical, fluorescence polarization (AID 588681).

The target of assay [4] is T2, Insulin-degrading enzyme. In words: activators of endogenous IDE in HEK cells, dose response, cell-based, fluorescence polarization (AID 588439). It is filed as functional. On the technique in general: In fluorescence polarisation assays a small probe gives low polarisation when free and higher when bound to something large.
The test system of assay [5] is HEK293. In words: HEK cell cytotoxicity by LDH release, dose response, cytotoxicity control for IDE activator project, fluorescence, HEK cells (AID 588440).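 Further: cytotoxicity by LDH release measuring loss of membrane integrity.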 The format is functional, cell-based. The settings on record: Homo sapiens.
Assay [6] relates to HEK293. In words: optical interference in Abeta FP readout, dose response, artefact control for IDE activator project, biochemical, fluorescence polarization (AID 588442). It is filed as functional, cell-based. As to conditions: Homo sapiens.
Assay [7] has as its target T3, Caspase-3 (Homo sapiens, UniProt P42574).
T3 sequence (P42574 whole entry): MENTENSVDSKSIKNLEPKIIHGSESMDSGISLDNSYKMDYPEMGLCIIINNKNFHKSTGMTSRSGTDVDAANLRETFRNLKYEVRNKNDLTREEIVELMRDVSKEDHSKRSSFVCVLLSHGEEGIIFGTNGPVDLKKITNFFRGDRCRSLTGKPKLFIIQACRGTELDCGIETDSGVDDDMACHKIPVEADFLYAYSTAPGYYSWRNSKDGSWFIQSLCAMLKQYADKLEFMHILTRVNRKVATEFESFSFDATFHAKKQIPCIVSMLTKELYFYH
Kind of assay: caspase-3 inhibitors as off-family protease, SAR follow-up, selectivity assay for SENP protease inhibitor project, biochemical, luminescence, set 2 (AID 588599). The format is functional.

For assay [8], the target named is T4, Sentrin-specific protease 8 (Homo sapiens, UniProt Q96LD8).
T4 sequence (Q96LD8 whole entry): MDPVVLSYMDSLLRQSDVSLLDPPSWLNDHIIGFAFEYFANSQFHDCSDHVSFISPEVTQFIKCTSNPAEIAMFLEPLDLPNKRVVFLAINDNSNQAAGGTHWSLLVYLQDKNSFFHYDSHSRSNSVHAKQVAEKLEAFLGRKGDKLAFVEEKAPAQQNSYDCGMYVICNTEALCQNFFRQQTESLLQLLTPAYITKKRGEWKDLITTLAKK
In words: SENP8 protease inhibitors, SAR follow-up, biochemical, luminescence, set 2 (AID 588601). The format is functional.

Assay [9] addresses T5, Sentrin-specific protease 7 (Homo sapiens, UniProt Q9BQF6).
T5 sequence (Q9BQF6 whole entry): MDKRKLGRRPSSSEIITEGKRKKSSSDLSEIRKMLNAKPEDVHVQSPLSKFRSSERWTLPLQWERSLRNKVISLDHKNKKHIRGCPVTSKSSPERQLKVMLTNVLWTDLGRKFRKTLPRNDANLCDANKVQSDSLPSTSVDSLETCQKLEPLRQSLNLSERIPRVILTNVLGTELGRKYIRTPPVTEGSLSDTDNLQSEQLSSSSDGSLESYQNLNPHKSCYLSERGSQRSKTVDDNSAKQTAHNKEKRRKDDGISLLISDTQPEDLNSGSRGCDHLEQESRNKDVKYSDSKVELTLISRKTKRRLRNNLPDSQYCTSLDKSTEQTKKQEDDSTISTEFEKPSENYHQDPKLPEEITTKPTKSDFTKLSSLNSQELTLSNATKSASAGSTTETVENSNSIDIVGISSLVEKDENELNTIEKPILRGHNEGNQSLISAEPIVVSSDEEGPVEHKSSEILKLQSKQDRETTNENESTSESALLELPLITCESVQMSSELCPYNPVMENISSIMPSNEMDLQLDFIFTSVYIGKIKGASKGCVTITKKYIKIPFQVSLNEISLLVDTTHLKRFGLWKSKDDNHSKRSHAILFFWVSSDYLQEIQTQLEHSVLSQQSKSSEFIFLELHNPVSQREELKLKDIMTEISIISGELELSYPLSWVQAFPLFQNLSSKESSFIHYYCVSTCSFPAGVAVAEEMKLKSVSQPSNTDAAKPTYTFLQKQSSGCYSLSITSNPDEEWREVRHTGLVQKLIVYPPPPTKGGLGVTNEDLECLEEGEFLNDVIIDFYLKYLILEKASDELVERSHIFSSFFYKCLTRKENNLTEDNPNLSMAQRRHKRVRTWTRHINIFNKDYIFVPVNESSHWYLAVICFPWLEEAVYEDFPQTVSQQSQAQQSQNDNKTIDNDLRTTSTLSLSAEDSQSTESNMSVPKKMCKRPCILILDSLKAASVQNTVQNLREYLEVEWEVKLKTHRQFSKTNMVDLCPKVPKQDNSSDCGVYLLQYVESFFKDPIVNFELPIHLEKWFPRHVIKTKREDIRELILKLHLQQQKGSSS
In words: SENP7 protease inhibitors, SAR follow-up, biochemical, luminescence, set 2 (AID 588600). The format is functional.

Assay [10] concerns the target T6, Sentrin-specific protease 6 (Homo sapiens, UniProt Q9GZR1).
T6 sequence (Q9GZR1 whole entry): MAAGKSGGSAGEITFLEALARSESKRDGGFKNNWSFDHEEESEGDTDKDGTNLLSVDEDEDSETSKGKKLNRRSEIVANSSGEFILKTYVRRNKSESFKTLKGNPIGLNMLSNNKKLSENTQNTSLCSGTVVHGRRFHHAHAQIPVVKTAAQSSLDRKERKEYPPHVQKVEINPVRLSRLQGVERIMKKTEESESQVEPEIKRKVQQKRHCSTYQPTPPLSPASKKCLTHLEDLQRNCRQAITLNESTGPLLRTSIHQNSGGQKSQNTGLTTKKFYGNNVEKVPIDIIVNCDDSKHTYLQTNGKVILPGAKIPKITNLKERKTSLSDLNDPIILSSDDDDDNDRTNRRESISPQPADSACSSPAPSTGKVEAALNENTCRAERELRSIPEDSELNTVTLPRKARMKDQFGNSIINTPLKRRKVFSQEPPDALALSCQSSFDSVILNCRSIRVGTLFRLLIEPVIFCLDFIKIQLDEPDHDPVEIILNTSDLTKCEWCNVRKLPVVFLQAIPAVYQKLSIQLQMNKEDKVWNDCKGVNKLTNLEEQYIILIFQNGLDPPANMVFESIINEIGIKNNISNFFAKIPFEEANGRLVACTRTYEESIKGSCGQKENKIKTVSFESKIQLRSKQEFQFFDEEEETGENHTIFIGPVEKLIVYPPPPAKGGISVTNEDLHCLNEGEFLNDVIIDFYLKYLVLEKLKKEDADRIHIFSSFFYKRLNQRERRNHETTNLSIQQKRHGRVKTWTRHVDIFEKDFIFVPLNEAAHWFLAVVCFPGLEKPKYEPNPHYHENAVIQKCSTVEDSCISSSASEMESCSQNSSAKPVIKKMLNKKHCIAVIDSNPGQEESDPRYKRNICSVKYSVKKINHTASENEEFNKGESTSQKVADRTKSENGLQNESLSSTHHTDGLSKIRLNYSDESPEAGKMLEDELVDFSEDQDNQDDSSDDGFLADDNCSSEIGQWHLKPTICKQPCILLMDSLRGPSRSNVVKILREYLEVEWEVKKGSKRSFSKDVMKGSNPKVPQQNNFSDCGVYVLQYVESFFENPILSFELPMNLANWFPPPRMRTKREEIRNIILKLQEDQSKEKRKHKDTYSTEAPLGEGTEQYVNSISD
Kind of assay: SENP6 protease inhibitors, SAR follow-up, biochemical, luminescence, set 2 (AID 588598). The format is functional.

Assay [11] deals with ALK tyrosine kinase receptor (Homo sapiens, UniProt Q9UM73). The format is functional.
The target in assay [12] is Vascular endothelial growth factor receptor 2 (Homo sapiens, UniProt P35968). It is filed as functional.
For assay [13], the target named is Melanocortin receptor 4 (Homo sapiens, UniProt P32245). In words: MC4R antagonist potency on cAMP, dose response, cell-based, TR-FRET, biased antagonists (AID 602298).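 Further: antagonist potency against agonist-stimulated cAMP production.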 It is filed as functional. On the technique in general: In TR-FRET formats the signal depends on donor and acceptor labels being close together.
Assay [14] can be described thus: nonselective inhibitors of cellular cAMP signaling, dose response, counter-screen for MC4R biased antagonist project, cell-based, TR-FRET cAMP detection (AID 602305).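 Further: U2OS cells stimulated with forskolin near its EC80 as the cAMP inducer; potency is for inhibition of forskolin-stimulated cAMP signaling.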 The format is functional. (In general: The purpose of a counterscreen is to sort out artefacts and off-target activity.)

Calls of active or inactive are those of the source.

Melanocortin receptor 4, sequence (P32245 whole entry): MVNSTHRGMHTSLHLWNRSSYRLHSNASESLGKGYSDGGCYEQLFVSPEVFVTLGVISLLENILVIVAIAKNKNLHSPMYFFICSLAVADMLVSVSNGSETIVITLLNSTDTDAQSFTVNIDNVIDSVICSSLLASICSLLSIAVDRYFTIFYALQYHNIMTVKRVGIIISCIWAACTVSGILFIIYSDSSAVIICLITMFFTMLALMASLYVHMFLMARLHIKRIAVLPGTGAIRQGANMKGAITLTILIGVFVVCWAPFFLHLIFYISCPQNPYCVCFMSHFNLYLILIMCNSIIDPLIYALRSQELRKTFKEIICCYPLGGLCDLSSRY
Aurora kinase B, sequence (Q96GD4 whole entry): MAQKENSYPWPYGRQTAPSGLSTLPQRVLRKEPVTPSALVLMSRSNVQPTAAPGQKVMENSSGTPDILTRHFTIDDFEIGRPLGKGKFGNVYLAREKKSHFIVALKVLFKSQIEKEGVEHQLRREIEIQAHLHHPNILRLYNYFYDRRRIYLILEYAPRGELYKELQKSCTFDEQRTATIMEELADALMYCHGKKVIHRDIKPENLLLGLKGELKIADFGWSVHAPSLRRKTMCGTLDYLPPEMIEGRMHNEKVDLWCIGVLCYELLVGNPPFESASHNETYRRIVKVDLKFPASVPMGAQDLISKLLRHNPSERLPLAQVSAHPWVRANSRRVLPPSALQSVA
Vascular endothelial growth factor receptor 2, sequence (P35968 whole entry): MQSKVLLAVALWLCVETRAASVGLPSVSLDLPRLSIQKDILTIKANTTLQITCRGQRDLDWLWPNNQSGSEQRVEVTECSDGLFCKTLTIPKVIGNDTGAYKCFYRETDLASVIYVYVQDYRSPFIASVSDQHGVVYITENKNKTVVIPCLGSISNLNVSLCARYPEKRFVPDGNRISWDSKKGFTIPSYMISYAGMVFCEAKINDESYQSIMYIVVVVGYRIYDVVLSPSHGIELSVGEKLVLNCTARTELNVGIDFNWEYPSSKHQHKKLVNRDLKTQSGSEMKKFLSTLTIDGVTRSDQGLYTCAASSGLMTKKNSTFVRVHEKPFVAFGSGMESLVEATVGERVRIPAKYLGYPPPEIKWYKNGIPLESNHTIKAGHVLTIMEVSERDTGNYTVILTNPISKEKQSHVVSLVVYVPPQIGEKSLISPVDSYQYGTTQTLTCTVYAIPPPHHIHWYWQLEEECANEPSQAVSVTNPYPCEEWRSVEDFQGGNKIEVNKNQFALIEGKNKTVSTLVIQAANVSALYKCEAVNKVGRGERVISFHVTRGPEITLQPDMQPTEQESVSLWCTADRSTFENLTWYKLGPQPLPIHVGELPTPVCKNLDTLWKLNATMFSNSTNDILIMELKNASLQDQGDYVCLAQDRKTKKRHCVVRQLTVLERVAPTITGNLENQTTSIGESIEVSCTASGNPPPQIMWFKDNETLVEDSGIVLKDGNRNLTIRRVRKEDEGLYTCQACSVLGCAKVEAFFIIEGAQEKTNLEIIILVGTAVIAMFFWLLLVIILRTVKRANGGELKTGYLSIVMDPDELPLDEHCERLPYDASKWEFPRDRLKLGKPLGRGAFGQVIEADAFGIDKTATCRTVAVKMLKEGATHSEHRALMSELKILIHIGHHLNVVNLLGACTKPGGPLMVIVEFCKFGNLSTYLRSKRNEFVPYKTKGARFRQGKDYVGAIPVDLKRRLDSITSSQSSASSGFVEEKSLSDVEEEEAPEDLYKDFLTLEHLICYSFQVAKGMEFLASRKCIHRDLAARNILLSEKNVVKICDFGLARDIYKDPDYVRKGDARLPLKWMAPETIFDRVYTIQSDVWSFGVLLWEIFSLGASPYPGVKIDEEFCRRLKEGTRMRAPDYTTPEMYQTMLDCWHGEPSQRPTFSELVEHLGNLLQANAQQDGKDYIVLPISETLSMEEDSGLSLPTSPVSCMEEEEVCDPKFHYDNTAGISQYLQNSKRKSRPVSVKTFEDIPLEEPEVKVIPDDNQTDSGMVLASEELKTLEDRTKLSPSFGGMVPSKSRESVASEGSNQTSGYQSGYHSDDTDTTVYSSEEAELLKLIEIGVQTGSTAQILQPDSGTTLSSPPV
ALK tyrosine kinase receptor, sequence (Q9UM73 whole entry): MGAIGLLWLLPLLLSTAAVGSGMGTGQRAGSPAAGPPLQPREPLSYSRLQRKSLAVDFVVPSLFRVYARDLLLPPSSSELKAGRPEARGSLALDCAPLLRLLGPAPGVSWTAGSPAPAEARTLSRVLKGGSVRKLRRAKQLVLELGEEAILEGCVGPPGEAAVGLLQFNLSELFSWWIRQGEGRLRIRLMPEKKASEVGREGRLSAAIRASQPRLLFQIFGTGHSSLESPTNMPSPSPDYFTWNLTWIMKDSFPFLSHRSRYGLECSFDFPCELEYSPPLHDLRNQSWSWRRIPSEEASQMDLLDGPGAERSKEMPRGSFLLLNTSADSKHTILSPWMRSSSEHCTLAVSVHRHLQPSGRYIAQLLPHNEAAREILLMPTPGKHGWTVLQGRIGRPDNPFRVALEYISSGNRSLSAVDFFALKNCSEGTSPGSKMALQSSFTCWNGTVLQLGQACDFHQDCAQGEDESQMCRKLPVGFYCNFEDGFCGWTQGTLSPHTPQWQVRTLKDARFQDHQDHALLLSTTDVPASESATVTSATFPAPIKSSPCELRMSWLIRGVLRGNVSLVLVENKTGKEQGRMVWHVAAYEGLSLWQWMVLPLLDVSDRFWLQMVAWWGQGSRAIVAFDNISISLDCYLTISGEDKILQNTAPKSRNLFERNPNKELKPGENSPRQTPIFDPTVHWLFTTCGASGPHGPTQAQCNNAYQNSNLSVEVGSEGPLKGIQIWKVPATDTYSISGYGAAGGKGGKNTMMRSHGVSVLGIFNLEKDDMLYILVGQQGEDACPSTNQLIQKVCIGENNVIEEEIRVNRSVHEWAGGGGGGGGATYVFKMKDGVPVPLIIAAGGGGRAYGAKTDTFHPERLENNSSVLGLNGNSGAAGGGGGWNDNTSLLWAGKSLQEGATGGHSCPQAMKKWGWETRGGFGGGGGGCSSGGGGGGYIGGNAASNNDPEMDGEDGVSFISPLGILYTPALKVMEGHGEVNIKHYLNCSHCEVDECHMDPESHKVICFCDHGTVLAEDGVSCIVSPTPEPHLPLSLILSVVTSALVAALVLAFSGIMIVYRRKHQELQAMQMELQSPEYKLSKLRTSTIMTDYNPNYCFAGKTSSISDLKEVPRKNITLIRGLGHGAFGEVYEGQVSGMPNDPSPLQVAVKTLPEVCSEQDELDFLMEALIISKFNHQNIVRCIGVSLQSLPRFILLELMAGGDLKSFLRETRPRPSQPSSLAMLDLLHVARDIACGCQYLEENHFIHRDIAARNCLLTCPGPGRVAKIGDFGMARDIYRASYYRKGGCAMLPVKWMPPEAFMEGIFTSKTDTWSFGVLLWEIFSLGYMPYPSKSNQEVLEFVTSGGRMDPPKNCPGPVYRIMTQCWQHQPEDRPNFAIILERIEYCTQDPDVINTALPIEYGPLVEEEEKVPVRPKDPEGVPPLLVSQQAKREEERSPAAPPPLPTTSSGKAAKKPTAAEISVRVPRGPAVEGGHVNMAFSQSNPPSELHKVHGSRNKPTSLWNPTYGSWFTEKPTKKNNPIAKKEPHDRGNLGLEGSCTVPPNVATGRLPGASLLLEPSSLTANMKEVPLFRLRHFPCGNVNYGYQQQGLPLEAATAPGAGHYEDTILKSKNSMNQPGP

The term Ki denotes the dissociation constant of the complex between target and ligand, obtained from inhibition or displacement. In the case of `CN(C)C(=O)C=Cc1ccc(-c2ccc(NC(=O)Nc3cccc(C(F)(F)F)c3)cc2)c2c(N)n[nH]c12`, the Ki is 39.8 nM (active) in [1] and 3.16 nM (active) in [2].

Usually EC50 stands for the concentration giving half of the maximal effect. Usually IC50 stands for the concentration that inhibits the measured activity by half. Regarding `CC(OC(=O)CC1CC2CCC1C2)C(=O)Nc1cccc(S(=O)(=O)N2CCOCC2)c1` (stereo not given), the EC50 in assay [3], in assay [4] and in assay [6] was > 54.7 µM (inactive) each time. Also, in assay [5], the IC50 is > 89.2 µM (inactive).

For the compound `CCCC(=O)Nc1ccc(C(=O)N/N=C/c2c(C)[nH]c3ccccc23)cc1`, the IC50 in assay [7], in assay [8], in assay [9] and in assay [10] was > 99 µM (inactive) throughout.

As for `CC1(c2nnc(Cc3ccccc3)o2)CC(c2c(Cl)cccc2Cl)=NO1` (stereo not given), the values for the EC50 in assay [3], in [4] and in assay [6] were > 54.7 µM (inactive), > 54.7 µM (inactive) and > 55.9 µM (inactive), respectively. In assay [5], the IC50 was > 89.2 µM (inactive).

With `COCc1c(Br)c(C)nc(OCC(=O)N/N=C/c2c[nH]c3ccccc23)c1C#N`, the IC50 in assay [7], in [8], in assay [9] and in [10] was > 99 µM (inactive) each time.

On to `NC(=O)c1cccc2nc(-c3ccc(-n4ccc(CN5CCCCC5)c4)cc3)[nH]c12`, for which the Ki was > 3.16 µM (inactive) in [11], > 2000 nM (inactive) in assay [1], 2 µM (active) in assay [12] and 39.8 nM (active) in [2].

On to `NC(=O)c1ccc(SCC(=O)OCC(=O)NCC2CCCCC2)c([N+](=O)[O-])c1`, for which the IC50 in assay [13] and in [14] was > 64.5 µM (inactive) in each case.

Consider `Cc1ccccc1NC(=O)CCC(=O)N/N=C/c1c[nH]c2ccccc12`, for which the IC50 in assay [7], in [8], in assay [9] and in assay [10] was > 99 µM (inactive) in each case.

Regarding `O=C1c2ccccc2C(=O)N1SC1CCCCC1`, the IC50 in [13] is 62 µM (inactive); in assay [14], 63.7 µM (inactive).

Source of the values: ChEMBL document CHEMBL1201862, “PubChem BioAssay data set” (2004).
